US8673935B2, “Drugs for the treatment of sarcogylcanopathies” (Genethon, priority 2006, dated 2014)
Where a SMILES comes first, the peptide text is derived from it. The star is where a group is joined. Cbz = O=C(OCc1ccccc1)*

Legend:
[1] = test system: mutant R77C α-sarcoglycan; experiment: Quadritransfected cell model: membrane targeting of mutant R77C α-sarcoglycan, immunohistochemical labelling; type: cell-based, human
Method: (§1) A second aspect of the invention relates to the assay used for in vitro assessment of the efficacy of inhibitors of the endoplasmic reticulum associated degradation (ERAD) pathway, used for the treatment of sarcoglycanopathies. This assay consists of the following steps: • co-transfection of cells with the four sarcoglycan genes (γ-, α-, β- and δ-), of which one carries the mutation to be tested; • incubation for several hours in the presence of the inhibitor; • localisation of the sarcoglycan complex.
(§2) Cross-sections were dried, then rehydrated in PBS or fixed cells were treated for 20 min with 1% triton in PBS, then incubated for 30 min at room temperature (RT) in PBS containing 15% foetal calf serum. Cross-sections were incubated with polyclonal anti-sarcoglycan antibodies (α-sarcoglycan: dilution 1/1000, targeting amino acids 366-379 of human α-sarcoglycan; β-sarcoglycan: dilution 1/20, NCL-b-SARC (Novocastra); γ-sarcoglycan: dilution 1/20, NCL-g-SARC (Novocastra); dystrophin: dilution 1/20, NCL-DYS2 (Novocastra); and calreticulin: dilution 1/70, ab4109 (Abcam)) for 1 to 2 hours at RT then rinsed 3 times in PBS. […] Cross-sections were then rinsed three times in PBS, mounted with fluoromount-G (Southern Biotech 0100-01) and then observed with a confocal microscope (Leica). Immunohistochemical analysis of human biopsy specimens was performed as described in Hackman et al. (9).
NIH3T3 or 911 cells were grown in Dulbecco's Modified Eagle Medium supplemented with glutamine, gentamicin and 10% foetal calf serum. Cells were transfected using […] Fugene (ROCHE) per 1 μg plasmid. 0.5 μg of each plasmid (α-SG or α-SG-R77C and β-SG, γ-SG, δ-SG) was used per well in 6-well dishes. For treatment by inhibitors, 43 hours after transfection cells were incubated for 5 hours with either the mannosidase inhibitor (kifunensin 5 μM, VWR) or the proteasome inhibitor (MG132 5 μM diluted in DMSO, Sigma). Cells were then rinsed in PBS and fixed with 3.7% formaldehyde in PBS for 15 min at RT, and rinsed three more times in PBS before immunohistochemical labelling. […]

[2] = test system: mutant E262K δ-sarcoglycan; experiment: Quadritransfected cell model: immunohistochemical labelling of mutant E262K δ-sarcoglycan; type: cell-based, human; conditions: dMJ 5 or 100; FIG. 12B
Method: as §1
B/Immunohistochemical labelling of δ-sarcoglycan in cells quadritransfected with the three α-, β- and γ-sarcoglycans and mutant E262K δ-sarcoglycan with or without 1-deoxymannojirimycin (dMJ) 5 or 100
FIG. 13: A/Immunohistochemical labelling of δ-sarcoglycan in cells quadritransfected with the three α-, β- and γ-sarcoglycans and mutant E262K δ-sarcoglycan with or without kifunensin 5 μM.
(§3) Cross-sections were dried, then rehydrated in PBS or fixed cells were treated for 20 min with 1% triton in PBS, then incubated for 30 min at room temperature (RT) in PBS containing 15% foetal calf serum. […]

[3] = test system: mutant Q11E β-sarcoglycan; experiment: Quadritransfected cell model: immunohistochemical labelling of mutant Q11E β-sarcoglycan; type: cell-based, human; conditions: dMJ 5, 50 or 100 μM; FIG. 12C
Method: as §1
C/Immunohistochemical labelling of β-sarcoglycan in cells quadritransfected with the three α-, γ- and δ-sarcoglycans and mutant Q11E β-sarcoglycan with or without 1-deoxymannojirimycin (dMJ) 5, 50 or 100 μM.
B/Immunohistochemical labelling of β-sarcoglycan in cells quadritransfected with the three α-, γ- and δ-sarcoglycans and mutant Q11E β-sarcoglycan with or without kifunensin 5 μM.
as §3

[4] = cited from earlier work
[5] = test system: mutant α-sarcoglycan in Sgca−/− muscle; experiment: Intramuscular inhibitor in Sgca−/− mice injected with AAV-SGCA77C vector: α-sarcoglycan labelling of muscle; type: in vivo, mouse; conditions: AAV-SGCA77C in tibialis anterior, 10 μM kifunensin intramuscular over one week, FIG. 11
Method: as §2
The rAAV2/1 viral preparations were injected (10^10 viral genomes (vg) in 30 μl total volume) in the left tibialis anterior muscle of Sgca−/− mice. On days 20, 22, 25 and 27 after injection, 10 μM kifunensin or 20 μM MG132 were injected into the muscle (i.e. either twice or 4 times the concentrations used in vitro to take into account diffusion within the muscle). One day prior to sacrifice (day 27), mice were injected intraperitoneally with Evans blue dye. […]

Question: Which “membrane targeting of mutant α-sarcoglycan (R77C)” value (from here on “membrane targeting”) ([1]; 100 μM 1-deoxymannojirimycin, FIG. 12A) does the source give for `OC[C@H]1NC[C@@H](O)[C@@H](O)[C@@H]1O` [1-deoxymannojirimycin] here?
Answer: efficacy of this substance for restoring membrane targeting

Question: What about the “restoration for mutation E262K on sub-unit δ” value [2] of the same molecule?
Answer: confirmed our working hypothesis

Question: And the “restoration for mutation Q11E on sub-unit β” value [3]?
Answer: confirmed our working hypothesis

Question: For `CC(C)C[C@@H](C=O)NC(=O)[C@H](CC(C)C)NC(=O)[C@H](CC(C)C)NC(=O)OCc1ccccc1` [MG132] (Cbz-Leu-Leu-Leu-aldehyde), which “membrane targeting” value ([1]; MG132 5 μM, 5 hours, 43 hours after transfection, NIH3T3 or 911 cells, FIG. 9) is on record?
Answer: restored membrane targeting

Question: Which water solubility [4] does the source give for `O=C1N[C@@H]2[C@@H](O)[C@@H](O)[C@H](O)[C@@H](CO)N2C1=O` [kifunensin, Kifunensin] here?
Answer: water-soluble

Question: And the “membrane targeting” value ([1]; kifunensin 5 μM, 5 hours, 43 hours after transfection, NIH3T3 or 911 cells, FIG. 10)?
Answer: restore membrane targeting

Question: And the “intracellular α-sarcoglycan aggregates in muscle” value [5]?
Answer: absence of aggregates
